Counter-ions that a name gives are not always drawn.

The values below come from patent publication US4258180A, “C6-Modified cyclodextrin sulfate salts as complement inhibitors” (American Cyanamid Company, priority 1979, dated 1981).

For assay [1], the system named is hereditary angio-neurotic edema. The following applies: literature reports; cited from earlier work.
The next assay relates to complement system. The following applies: British Journal of Experimental Pathology, 33, 327-339 (1952); cited from earlier work.
The test system of assay [2] is late components of human complement (C3-C9). In words: Test Code 035 (C3-C9 inhibitor), lysis of EAC 142. Format: biochemical. The following applies: serial dilution assay, twofold dilutions; higher well number indicates higher activity; N = Negative. The text has this:
(§1) An active inhibitor protects C2 from C1 and C4; (ii) Test Code 035 (C3-C9 inhibitor)--This test determines the ability of the late components of human complement (C3-C9) to lyse EAC 142 in the presence of appropriate dilutions of the test compound. An active inhibitor protects EAC 142 from lysis by human C3-C9; (iii) Test Code 036 (C-Shunt inhibitor)--In this test human erythrocytes rendered fragile are lysed in autologous serum via the shunt pathway activated by cobra venom factor in the presence of appropriate dilutions of the test compound. Inhibition of the shunt pathway results in failure of lysis; (iv) Forssman Vasculitis Test--Here, the well known complement dependent lesion, Forssman Vasculitis, is produced in guinea pigs by intradermal injection of rabbit anti-Forssman antiserum. The lesion is measured in terms of diameter, edema and hemorrhage and the extent to which a combined index of these is inhibited by prior intraperitoneal injection of the test compound at 200 mg/kg is then reported, unless otherwise stated; (v) Forssman Shock Test--Lethal shock is produced in guinea pigs by an i.v. injection of anti-Forssman antiserum and the harmonic mean death time of treated guinea pigs is compared with that of simultaneous controls; (vi) Complement Level Reduction Test--In this test, the above dosed guinea pigs, or others, are bled for serum and the complement level is determined in undiluted serum by the capillary tube method of U.S. Pat. No. 3,876,376 and compared to undosed control guinea pigs; and (vii) Cap 50 Test--Here, appropriate amounts of the test compound are added to a pool of guinea pig serum in vitro, after which the undiluted serum capillary tube assay referred to above is run. The concentration of compound inhibiting 50% is reported.

The subject of another assay is shunt pathway. The assay can be described thus: Test Code 036 (C-Shunt inhibitor), lysis of fragile human erythrocytes in autologous serum, cobra venom factor. It is filed as biochemical. The following applies: serial dilution assay, twofold dilutions; higher well number indicates higher activity; N = Negative.
Source text: as §1

The target in another assay is activated human C1 (Homo sapiens, UniProt P09871). The assay can be described thus: Test Code 026 (C1 inhibitor). The note with it: serial dilution assay, twofold dilutions; higher well number indicates higher activity. It is filed as biochemical.
Source text: as §1

Turning to `NC[C@H]1CC[C@H](C(=O)O)CC1` [tranexamic acid], the “treatment of hereditary angio-neurotic edema” value in assay [1] is “used with success”.

Turning to heparin, the anticomplementary effect entry in the assay on complement system is given as “anticomplementary effect”.

As to `NCCCCCC(=O)O` [epsilon-aminocaproic acid], the “treatment of hereditary angio-neurotic edema” value in assay [1] is listed as “used with success”.

For the compound `N#CSC[C@H]1O[C@@H]2O[C@H]3[C@H](OS(=O)(=O)O)[C@@H](OS(=O)(=O)O)[C@@H](O[C@H]4[C@H](OS(=O)(=O)O)[C@@H](OS(=O)(=O)O)[C@@H](O[C@H]5[C@H](OS(=O)(=O)O)[C@@H](OS(=O)(=O)O)[C@@H](O[C@H]6[C@H](OS(=O)(=O)O)[C@@H](OS(=O)(=O)O)[C@@H](O[C@H]7[C@H](OS(=O)(=O)O)[C@@H](OS(=O)(=O)O)[C@@H](O[C@H]1[C@H](OS(=O)(=O)O)[C@H]2OS(=O)(=O)O)O[C@@H]7CSC#N)O[C@@H]6CSC#N)O[C@@H]5CSC#N)O[C@@H]4CSC#N)O[C@@H]3CSC#N` [α-Cyclo[6-deoxy-6-thiocyanato]dextrin poly(H-sulfate)poly-tr] [6,6',6",6'",6"",6'""-Hexadeoxy-6,6',6",6'",6"",6'""-hexathiocyanato-α-cyclodextrin, dodecakis(H-sulfate), dodecasalt with trimethylamine], in assay [2], the “035 Activity in wells” value is “N”. Besides, the “036 Activity in wells” value in the assay with shunt pathway is given as “N”. The “026 Activity in wells” value on activated human C1 was found to be 1 wells.

Regarding `N#CSC[C@H]1O[C@@H]2O[C@H]3[C@H](OS(=O)(=O)O)[C@@H](OS(=O)(=O)O)[C@@H](O[C@H]4[C@H](OS(=O)(=O)O)[C@@H](OS(=O)(=O)O)[C@@H](O[C@H]5[C@H](OS(=O)(=O)O)[C@@H](OS(=O)(=O)O)[C@@H](O[C@H]6[C@H](OS(=O)(=O)O)[C@@H](OS(=O)(=O)O)[C@@H](O[C@H]7[C@H](OS(=O)(=O)O)[C@@H](OS(=O)(=O)O)[C@@H](O[C@H]1[C@H](OS(=O)(=O)O)[C@H]2OS(=O)(=O)O)O[C@@H]7CSC#N)O[C@@H]6CSC#N)O[C@@H]5CSC#N)O[C@@H]4CSC#N)O[C@@H]3CSC#N` [α-Cyclo[6-deoxy-6-thiocyanato]dextrin poly(H-sulfate)poly-so] [6,6',6",6'",6"",6'""-Hexadeoxy-6,6',6",6'",6"",6'""-hexathiocyanato-α-cyclodextrin, dodecakis(H-sulfate), dodecasodium salt], the “035 Activity in wells” value in assay [2] is 2 wells. Further, the “036 Activity in wells” value in the assay with shunt pathway was found to be 4 wells. Besides, at activated human C1, the “026 Activity in wells” value stood at 7 wells.

Regarding `C[C@H]1O[C@@H]2O[C@H]3[C@H](OS(=O)(=O)O)[C@@H](OS(=O)(=O)O)[C@@H](O[C@H]4[C@H](OS(=O)(=O)O)[C@@H](OS(=O)(=O)O)[C@@H](O[C@H]5[C@H](OS(=O)(=O)O)[C@@H](OS(=O)(=O)O)[C@@H](O[C@H]6[C@H](OS(=O)(=O)O)[C@@H](OS(=O)(=O)O)[C@@H](O[C@H]7[C@H](OS(=O)(=O)O)[C@@H](OS(=O)(=O)O)[C@@H](O[C@H]8[C@H](OS(=O)(=O)O)[C@@H](OS(=O)(=O)O)[C@@H](O[C@H]1[C@H](OS(=O)(=O)O)[C@H]2OS(=O)(=O)O)O[C@@H]8C)O[C@@H]7C)O[C@@H]6C)O[C@@H]5C)O[C@@H]4C)O[C@@H]3C` [β-Cyclo[6-deoxy]dextrin poly(H-sulfate)poly-sodium salt] [6,6',6",6'",6"",6'"",6"""-Heptadeoxy-β-cyclodextrin, tetradecakis(H-sulfate), tetradecasodium salt], the “035 Activity in wells” value in assay [2] came to 4 wells. For the same compound, the “036 Activity in wells” value with shunt pathway was found to be 5 wells. Also, the “026 Activity in wells” value at activated human C1 is reported as 9 wells.

As for `N#CSC[C@H]1O[C@@H]2O[C@H]3[C@H](OS(=O)(=O)O)[C@@H](OS(=O)(=O)O)[C@@H](O[C@H]4[C@H](OS(=O)(=O)O)[C@@H](OS(=O)(=O)O)[C@@H](O[C@H]5[C@H](OS(=O)(=O)O)[C@@H](OS(=O)(=O)O)[C@@H](O[C@H]6[C@H](OS(=O)(=O)O)[C@@H](OS(=O)(=O)O)[C@@H](O[C@H]7[C@H](OS(=O)(=O)O)[C@@H](OS(=O)(=O)O)[C@@H](O[C@H]8[C@H](OS(=O)(=O)O)[C@@H](OS(=O)(=O)O)[C@@H](O[C@H]1[C@H](OS(=O)(=O)O)[C@H]2OS(=O)(=O)O)O[C@@H]8CSC#N)O[C@@H]7CSC#N)O[C@@H]6CSC#N)O[C@@H]5CSC#N)O[C@@H]4CSC#N)O[C@@H]3CSC#N` [β-Cyclo[6-deoxy-6-thiocyanato]dextrin poly(H-sulfate)poly-tr] [6,6',6",6'",6"",6'"",6"""-Heptadeoxy-6,6',6",6'",6"",6'"",6""-heptathiocyanato-β-cyclodextrin, tetradecakis(H-sulfte), tetradecasalt with trimethylamine], in assay [2], the “035 Activity in wells” value is on record as “N”. Besides, the “036 Activity in wells” value with shunt pathway worked out at 1 wells. On activated human C1, the “026 Activity in wells” value turned out to be 4 wells.

With `C[C@H]1O[C@@H]2O[C@H]3[C@H](OS(=O)(=O)O)[C@@H](OS(=O)(=O)O)[C@@H](O[C@H]4[C@H](OS(=O)(=O)O)[C@@H](OS(=O)(=O)O)[C@@H](O[C@H]5[C@H](OS(=O)(=O)O)[C@@H](OS(=O)(=O)O)[C@@H](O[C@H]6[C@H](OS(=O)(=O)O)[C@@H](OS(=O)(=O)O)[C@@H](O[C@H]7[C@H](OS(=O)(=O)O)[C@@H](OS(=O)(=O)O)[C@@H](O[C@H]1[C@H](OS(=O)(=O)O)[C@H]2OS(=O)(=O)O)O[C@@H]7C)O[C@@H]6C)O[C@@H]5C)O[C@@H]4C)O[C@@H]3C` [α-Cyclo[6-deoxy]dextrin poly(H-sulfate)poly-trimethylamine s] [6,6',6",6'",6"",6'""-Hexadeoxy-α-cyclodextrin, dodecakis(H-sulfate), dodecasalt with trimethylamine], the “035 Activity in wells” value in assay [2] is “N”. The “036 Activity in wells” value in the assay on shunt pathway came out at 3 wells. In addition, the “026 Activity in wells” value at activated human C1 came to 7 wells.

As for `[N-]=[N+]=NC[C@H]1O[C@@H]2O[C@H]3[C@H](OS(=O)(=O)O)[C@@H](OS(=O)(=O)O)[C@@H](O[C@H]4[C@H](OS(=O)(=O)O)[C@@H](OS(=O)(=O)O)[C@@H](O[C@H]5[C@H](OS(=O)(=O)O)[C@@H](OS(=O)(=O)O)[C@@H](O[C@H]6[C@H](OS(=O)(=O)O)[C@@H](OS(=O)(=O)O)[C@@H](O[C@H]7[C@H](OS(=O)(=O)O)[C@@H](OS(=O)(=O)O)[C@@H](O[C@H]1[C@H](OS(=O)(=O)O)[C@H]2OS(=O)(=O)O)O[C@@H]7CN=[N+]=[N-])O[C@@H]6CN=[N+]=[N-])O[C@@H]5CN=[N+]=[N-])O[C@@H]4CN=[N+]=[N-])O[C@@H]3CN=[N+]=[N-]` [α-Cyclo[6-azido-6-deoxy]dextrin poly(H-sulfate)poly-sodium s] [6,6',6",6'",6"",6'""-Hexaazido-6,6',6",6'",6"",6'""-hexadeoxy-α-cyclodextrin, dodecakis(H-sulfate), dodecasodium salt], the “035 Activity in wells” value in assay [2] stood at 1 wells. For the same compound, the “036 Activity in wells” value in the assay on shunt pathway is 4 wells. Also, the “026 Activity in wells” value at activated human C1 is recorded as 7 wells.

In the case of `C[C@H]1O[C@@H]2O[C@H]3[C@H](OS(=O)(=O)O)[C@@H](OS(=O)(=O)O)[C@@H](O[C@H]4[C@H](OS(=O)(=O)O)[C@@H](OS(=O)(=O)O)[C@@H](O[C@H]5[C@H](OS(=O)(=O)O)[C@@H](OS(=O)(=O)O)[C@@H](O[C@H]6[C@H](OS(=O)(=O)O)[C@@H](OS(=O)(=O)O)[C@@H](O[C@H]7[C@H](OS(=O)(=O)O)[C@@H](OS(=O)(=O)O)[C@@H](O[C@H]1[C@H](OS(=O)(=O)O)[C@H]2OS(=O)(=O)O)O[C@@H]7C)O[C@@H]6C)O[C@@H]5C)O[C@@H]4C)O[C@@H]3C` [α-Cyclo[6-deoxy]dextrin poly(H-sulfate)poly-sodium salt] [6,6',6",6'",6"",6'""-Hexadeoxy-α-cyclodextrin, dodecakis(H-sulfate), dodecasodium salt], the “035 Activity in wells” value in assay [2] is listed as 1 wells. Also, the “036 Activity in wells” value in the assay on shunt pathway was found to be 4 wells. In addition, at activated human C1, the “026 Activity in wells” value was 8 wells.

With `O=S(=O)(O)O[C@@H]1[C@@H](OS(=O)(=O)O)[C@H]2O[C@H]3[C@H](OS(=O)(=O)O)[C@@H](OS(=O)(=O)O)[C@@H](O[C@H]4[C@H](OS(=O)(=O)O)[C@@H](OS(=O)(=O)O)[C@@H](O[C@H]5[C@H](OS(=O)(=O)O)[C@@H](OS(=O)(=O)O)[C@@H](O[C@H]6[C@H](OS(=O)(=O)O)[C@@H](OS(=O)(=O)O)[C@@H](O[C@H]7[C@H](OS(=O)(=O)O)[C@@H](OS(=O)(=O)O)[C@@H](O[C@H]8[C@H](OS(=O)(=O)O)[C@@H](OS(=O)(=O)O)[C@@H](O[C@@H]1[C@@H](CBr)O2)O[C@@H]8CBr)O[C@@H]7CBr)O[C@@H]6CBr)O[C@@H]5CBr)O[C@@H]4CBr)O[C@@H]3CBr` [β-Cyclo[6-bromo-6-deoxy]dextrin poly(H-sulfate)poly-sodium s] [6,6',6",6'",6"",6'"",6"""-Heptabromo-6,6',6",6'",6"",6'"",6"""-heptadeoxy-β-cyclodextrin, tetradecakis(H-sulfate), tetradecasodium salt], the “035 Activity in wells” value in assay [2] amounted to 3 wells. Moreover, the “036 Activity in wells” value with shunt pathway is 5 wells. In addition, the “026 Activity in wells” value at activated human C1 amounted to 7 wells.
